Test results: patent US10196374B2 (AstraZeneca AB, priority 2014, dated 2019)

What was measured:
[1] = target: T1, human glucocorticoid receptor (GR) (Homo sapiens (Human), UniProt P04150); assay: GRE Agonist Assay (ChagoK1 18:7:2 s4/GRE MMTV-GRE-LacZ reporter cell line); type: cell-based; settings: for Emax at 1 µM: ChaGo-K-1, relative to full agonist effect of dexamethasone, read-out: TA agonist Observed max Effect at 1 μM (%); for TA agonist pEC50: transactivation in agonist mode, ChagoK1 GRE-LacZ reporter cells, 24 hours
Description: GRE Agonist Assay A reporter cell line (ChagoK1 18:7:2 s4/GRE) was established by stable transfection of the human bronchogenic carcinoma cell line, ChaGo K1 (ATCC: HTB 168) with a MMTV-GRE-LacZ reporter construct. The generated cell line allows for identification of compounds showing agonist activity at the human glucocorticoid receptor (GR) via induction of LacZ gene expression. Ligand-activated GR binds to the Glucocorticoid Response Element (GRE) in the promoter of the LacZ gene and transcription is initiated. The resulting beta-galactosidase activity is measured through a colour reaction (change in absorbance). Cryo-preserved ChagoK1 18:7:2 s4/GRE cells were suspended in RPMI medium with 10% FBS, 1% NEAA and 1% sodium pyruvate, and seeded as 50000 cells/200 ul/well in 96-well plates and cultured at 37° C. with 5% CO2 and 95% humidity for 24 hours. 1 μl compound was added at different concentrations to the cells and incubated for another 24 hours. […] The reaction was then terminated by addition of 100 μl stop solution (300 mM glycine, 15 mM EDTA, pH 11.3, adjusted with NaOH). […]) Where A=min Y, B=max Y, C=log EC50 and D=Slope factor

[2] = target: T1, human glucocorticoid receptor (GR); assay: GRE Antagonist Assay (ChagoK1 18:7:2 s4/GRE reporter cells pre-stimulated with dexamethasone); type: cell-based; settings: for Emax at 1 µM: ChaGo-K-1, relative to full antagonist effect of Mifepristone (RU486), read-out: TA antagonist Observed max Effect at 1 μM (%); for TA antagonist pIC50: transactivation in antagonist mode, pre-stimulated with dexamethasone 70 nM
Description: GRE Antagonist Assay A reporter cell line (ChagoK1 18:7:2 s4/GRE) was established by stable transfection of the human bronchogenic carcinoma celline, ChaGo K1 (ATCC: HTB 168) with a MMTV-GRE-LacZ reporter construct. The generated cell line allows for identification of compounds showing antagonist activity at the human glucocorticoid receptor (GR) via reduction of LacZ gene expression. Dexamethasone-activated GR binds to the Glucocorticoid Response Element (GRE) in the promoter of the LacZ gene and transcription is initiated. Antagonistic properties of compounds are assessed as beta-galactosidase intensity reduction from pre-stimulation with dexamethasone through a colour reaction (change in absorbance). Cryo-preserved ChagoK1 18:7:2 s4/GRE cells were suspended in RPMI medium with 10% FBS, 1% NEAA and 1% sodium pyruvate, and seeded as 50000 cells/200 ul/well in 96-well plates and cultured at 37° C. with 5% CO2 and 95% humidity for 24 hr. […] The reaction was then terminated by addition of 100 μl stop solution (300 mM glycine, 15 mM EDTA, pH 11.3, adjusted with NaOH). The plates were measured at 420 nm for absorbance in a SpectraMax reader (Molecular Device). […]) Where A=min Y, B=max Y, C=log IC50 and D=Slope factor

T1 sequence (P04150 whole entry): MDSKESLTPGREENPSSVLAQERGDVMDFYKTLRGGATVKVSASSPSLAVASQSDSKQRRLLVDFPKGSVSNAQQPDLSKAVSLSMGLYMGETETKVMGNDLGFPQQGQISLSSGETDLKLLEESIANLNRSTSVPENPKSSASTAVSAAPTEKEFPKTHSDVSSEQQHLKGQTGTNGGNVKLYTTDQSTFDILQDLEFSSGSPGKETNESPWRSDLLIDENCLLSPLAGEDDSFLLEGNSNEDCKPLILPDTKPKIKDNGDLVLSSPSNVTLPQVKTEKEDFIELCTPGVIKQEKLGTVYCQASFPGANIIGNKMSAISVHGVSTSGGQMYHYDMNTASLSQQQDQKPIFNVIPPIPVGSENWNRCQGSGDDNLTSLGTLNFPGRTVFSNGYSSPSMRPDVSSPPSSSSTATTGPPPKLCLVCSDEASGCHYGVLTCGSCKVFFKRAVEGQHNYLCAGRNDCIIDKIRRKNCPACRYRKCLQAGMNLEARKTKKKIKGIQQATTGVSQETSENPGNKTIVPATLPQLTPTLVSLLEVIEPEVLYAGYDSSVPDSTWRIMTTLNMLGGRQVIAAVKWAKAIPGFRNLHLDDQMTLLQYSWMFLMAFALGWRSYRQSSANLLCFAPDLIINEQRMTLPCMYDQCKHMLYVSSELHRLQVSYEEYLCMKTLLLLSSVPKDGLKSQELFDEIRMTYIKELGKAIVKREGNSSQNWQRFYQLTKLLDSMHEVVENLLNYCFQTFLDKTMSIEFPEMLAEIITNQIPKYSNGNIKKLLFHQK

Compound	Emax at 1 µM [1] [%]	TA agonist pEC50 [1]	Emax at 1 µM [2] [%]	TA antagonist pIC50 [2]
CC(C)[C@H](NC(=O)C(C)(F)F)[C@H](Oc1ccc2c(cnn2-c2ccc(=O)n(C)c2)c1)c1cccc(Cl)c1 [Example 5, N-[(1R,2S)-1-(3-chlorophenyl)-3-methyl-1-{[1-(1-methyl-6-oxo-1,6-dihydropyridin-3-yl)-1H-indazol-5-yl]oxy}butan-2-yl]-2,2-difluoropropanamide]	28	8.6	72	6.7
CCn1cc(-n2ncc3cc(O[C@H](c4ccccc4)[C@@H](NC(=O)C(C)(F)F)C(C)C)ccc32)ccc1=O [Example 23, N-[(1R,2S)-1-{[1-(1-ethyl-6-oxo-1,6-dihydropyridin-3-yl)-1H-indazol-5-yl]oxy}-3-methyl-1-phenylbutan-2-yl]-2,2-difluoropropanamide]	14	7.6	70	6.4
CC(C)[C@H](NC(=O)C(C)(F)F)[C@H](Oc1ccc2c(cnn2-c2ccc(=O)n(C)c2)c1)c1ccc(OC(F)(F)F)cc1 [Example 9, 2,2-difluoro-N-{(1R,2S)-3-methyl-1-{[1-(1-methyl-6-oxo-1,6-dihydropyridin-3-yl)-1H-indazol-5-yl]oxy}-1-[4-(trifluoromethoxy)phenyl]butan-2-yl}propanamide]	22	7.7	63	6.9
CC(C)[C@H](NC(=O)C(C)(F)F)[C@H](Oc1ccc2c(cnn2-c2ccc(=O)n(C)c2)c1)c1ccc(Cl)c(F)c1 [Example 20, N-[(1R,2S)-1-(4-chloro-3-fluorophenyl)-3-methyl-1-{[1-(1-methyl-6-oxo-1,6-dihydropyridin-3-yl)-1H-indazol-5-yl]oxy}butan-2-yl]-2,2-difluoropropanamide]	43	8.3	66	7.3
CC(C)[C@H](NC(=O)C(F)(F)F)[C@H](Oc1cc2cnn(-c3ccc(=O)n(C)c3)c2cc1Cl)c1ccccc1 [Example 22, N-[(1R,2S)-1-{[6-chloro-1-(1-methyl-6-oxo-1,6-dihydropyridin-3-yl)-1H-indazol-5-yl]oxy}-3-methyl-1-phenylbutan-2-yl]-2,2,2-trifluoroacetamide]	37	8.5	56	7.3
CC(C)[C@H](NC(=O)C(C)(F)F)[C@H](Oc1ccc2c(cnn2-c2ccc(=O)n(C)c2)c1)c1ccc(C(F)(F)F)cc1 [Example 10, 2,2-difluoro-N-{(1R,2S)-3-methyl-1-{[1-(1-methyl-6-oxo-1,6-dihydropyridin-3-yl)-1H-indazol-5-yl]oxy}-1-[4-(trifluoromethyl)phenyl]butan-2-yl}propanamide]	40	8.1	51	7.0
CC(C)[C@H](NC(=O)C(C)(F)F)[C@H](Oc1ccc2c(cnn2-c2ccc(=O)n(C)c2)c1)c1ccc(Cl)cc1 [Example 7, N-[(1R,2S)-1-(4-chlorophenyl)-3-methyl-1-{[1-(1-methyl-6-oxo-1,6-dihydropyridin-3-yl)-1H-indazol-5-yl]oxy}butan-2-yl]-2,2-difluoropropanamide]	46	8.1	54	7.1
Cc1cc2c(cnn2-c2ccc(=O)n(C)c2)cc1O[C@H](c1ccccc1)[C@@H](NC(=O)C(C)(F)F)C(C)C [Example 12, 2,2-difluoro-N-[(1R,2S)-3-methyl-1-{[6-methyl-1-(1-methyl-6-oxo-1,6-dihydropyridin-3-yl)-1H-indazol-5-yl]oxy}-1-phenylbutan-2-yl]propanamide]	46	8.4	48	7.1
CC(C)[C@H](NC(=O)C(F)(F)F)[C@H](Oc1ccc2c(cnn2-c2ccc(=O)n(C)c2)c1)c1ccc(OC(F)F)cc1 [Example 16, N-[(1R,2S)-1-[4-(difluoromethoxy)phenyl]-3-methyl-1-{[1-(1-methyl-6-oxo-1,6-dihydropyridin-3-yl)-1H-indazol-5-yl]oxy}butan-2-yl]-2,2,2-trifluoroacetamide]	20	8.0	75	6.6
CC(C)[C@H](NC(=O)C(F)(F)F)[C@H](Oc1ccc2c(cnn2-c2ccc(=O)n(C)c2)c1)c1ccccc1 [Example 2, 2,2,2-trifluoro-N-[(1R,2S)-3-methyl-1-{[1-(1-methyl-6-oxo-1,6-dihydropyridin-3-yl)-1H-indazol-5-yl]oxy}-1-phenylbutan-2-yl]acetamide]	25	–	67	–

Other lines, results leading:

Emax at 1 µM [1] [%]	TA agonist pEC50 [1]	Emax at 1 µM [2] [%]	TA antagonist pIC50 [2]	Compound
28	8.3	72	6.9	CC(C)[C@H](NC(=O)C(F)(F)F)[C@H](Oc1ccc2c(cnn2-c2ccc(=O)n(C)c2)c1)c1ccc(Cl)cc1 [Example 13, N-[(1R,2S)-1-(4-chlorophenyl)-3-methyl-1-{[1-(1-methyl-6-oxo-1,6-dihydropyridin-3-yl)-1H-indazol-5-yl]oxy}butan-2-yl]-2,2,2-trifluoroacetamide]
36	7.7	56	6.8	CC(C)[C@H](NC(=O)C(C)(F)F)[C@H](Oc1ccc2c(cnn2-c2ccc(=O)n(C)c2)c1)c1cc(Cl)cc(Cl)c1 [Example 8, N-[(1R,2S)-1-(3,5-dichlorophenyl)-3-methyl-1-{[1-(1-methyl-6-oxo-1,6-dihydropyridin-3-yl)-1H-indazol-5-yl]oxy}butan-2-yl]-2,2-difluoropropanamide]
32	8.4	79	7.4	CC(C)[C@H](NC(=O)C(F)(F)F)[C@H](Oc1ccc2c(cnn2-c2ccc(=O)n(C)c2)c1)c1ccc(Cl)c(F)c1 [Example 17, N-[(1R,2S)-1-(4-chloro-3-fluorophenyl)-3-methyl-1-{[1-(1-methyl-6-oxo-1,6-dihydropyridin-3-yl)-1H-indazol-5-yl]oxy}butan-2-yl]-2,2,2-trifluoroacetamide]
32	8.8	61	7.6	CC(C)[C@H](NC(=O)C(F)(F)F)[C@H](Oc1ccc2c(cnn2-c2ccc(=O)n(C)c2)c1)c1cc(F)cc(Cl)c1 [Example 18, N-[(1R,2S)-1-[3-chloro-5-fluorophenyl]-3-methyl-1-{[1-(1-methyl-6-oxo-1,6-dihydropyridin-3-yl)-1H-indazol-5-yl]oxy}butan-2-yl]-2,2,2-trifluoroacetamide]
38	8.5	58	7.6	CC(C)[C@H](NC(=O)C(C)(F)F)[C@H](Oc1ccc2c(cnn2-c2ccc(=O)n(C)c2)c1)c1cc(F)cc(Cl)c1 [Example 19, N-[(1R,2S)-1-(3-chloro-5-fluorophenyl)-3-methyl-1-{[1-(1-methyl-6-oxo-1,6-dihydropyridin-3-yl)-1H-indazol-5-yl]oxy}butan-2-yl]-2,2-difluoropropanamide]
20	7.7	65	6.9	CC(C)[C@H](NC(=O)C(F)(F)F)[C@H](Oc1ccc2c(cnn2-c2ccc(=O)n(C)c2)c1)c1cc(Cl)cc(Cl)c1 [Example 14, N-[(1R,2S)-1-(3,5-dichlorophenyl)-3-methyl-1-{[1-(1-methyl-6-oxo-1,6-dihydropyridin-3-yl)-1H-indazol-5-yl]oxy}butan-2-yl]-2,2,2-trifluoroacetamide]
42	8.7	51	8.8	CC(C)[C@H](NC(=O)C(F)(F)F)[C@H](Oc1ccc2c(cnn2-c2ccc(=O)n(C)c2)c1)c1cc(F)cc(F)c1 [Example 4]
